According to article PMC6149722, “Comparison of the Binding of Reversible Inhibitors to Human Butyrylcholinesterase and Acetylcholinesterase: A Crystallographic, Kinetic and Calorimetric Study” (Molecules : A Journal of Synthetic Chemistry and Natural …, 2017):
Where a name gives a salt, the structure may show the parent alone. Read-outs that look alike come from different tables or passages of the source.

Assays:
[1] = target: T1, BChE (Homo sapiens, UniProt P06276); assay: Inhibition of second-order substrate hydrolysis by BChE (inhibition constants KI); type: biochemical
T1 construct: Purified human plasma wild-type BChE was a gift from Dr. Oksana Lockridge; tissue gift from Dr. Oksana Lockridge (University of Nebraska Medical Center); host or cells: human plasma
T1 sequence (P06276 29-602): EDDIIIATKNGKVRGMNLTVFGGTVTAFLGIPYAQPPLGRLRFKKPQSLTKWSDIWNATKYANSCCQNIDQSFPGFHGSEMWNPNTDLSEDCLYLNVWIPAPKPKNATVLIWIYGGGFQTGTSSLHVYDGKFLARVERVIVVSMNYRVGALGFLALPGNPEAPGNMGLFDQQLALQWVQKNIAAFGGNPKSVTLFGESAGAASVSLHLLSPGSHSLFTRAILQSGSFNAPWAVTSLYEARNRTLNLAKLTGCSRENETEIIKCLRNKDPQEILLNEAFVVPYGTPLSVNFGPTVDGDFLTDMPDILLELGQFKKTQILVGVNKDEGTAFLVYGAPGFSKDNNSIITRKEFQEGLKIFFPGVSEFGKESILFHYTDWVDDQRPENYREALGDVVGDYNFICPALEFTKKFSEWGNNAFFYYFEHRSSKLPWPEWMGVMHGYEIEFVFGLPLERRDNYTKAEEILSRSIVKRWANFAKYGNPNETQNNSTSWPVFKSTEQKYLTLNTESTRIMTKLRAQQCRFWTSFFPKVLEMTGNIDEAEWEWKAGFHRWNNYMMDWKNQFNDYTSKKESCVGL
Protocol: To further compare the binding sites of inhibitors with AChE and BChE, we employed an inhibitor competition assay. This assay is designed to detect any ternary complex formed when two inhibitors are added to AChE or BChE simultaneously. The assay is conducted with a substrate like acetylthiocholine whose second-order hydrolysis at low substrate concentrations is diffusion controlled and thus is inhibited by ligands that bind to either the A-site or the P-site (see Figure 7A below). Individual inhibition constants KI were obtained by plotting the ratios of the hydrolysis rate constant kE at various concentrations of one inhibitor (kE + I) to kE in the absence of inhibitor (kE [I] = 0) against inhibitor concentration. Inhibitor competition was then assessed by determining ratios of kE at a fixed concentration ([I1]) of inhibitor 1 and various concentrations ([I2]) of inhibitor 2 (kE + I2) to kE at the same [I1] in the absence of [I2] (kE [I2] = 0) and plotting these ratios against [I2]. These plots were analyzed with Equation (5) (described in the Materials and Methods Section 4.4) to obtain the relative affinity of I1 in its binary complex with enzyme E to I1 in a ternary complex with I2 and E (K12/K1). […].
For enzyme kinetics experiments, purified recombinant hAChE (~1500 units as determined by the supplier) was purchased from Sigma Aldrich (St. Louis, MO, USA). The AChE concentration was calculated using the assumption of 450 units/nmol (4.8 ∆A412/(min × nM)). Purified human plasma wild-type BChE was a gift from Dr. Oksana Lockridge (University of Nebraska Medical Center, Omaha, NE, USA). BChE concentration was calculated assuming 62.5 unit/nmol (0.94 ∆A412/(min × nM)). As defined previously, […] is the amount of BChE that gives 1.0 ∆A/min in the presence of 1.6 × 10^−4 M butyrylthiocholine in a 1.5 mL assay.
Inhibition constants for inhibitors of BChE were determined using a modification of a previously described method. Briefly, varying amounts of inhibitor (in 50 μL of 50% CH3CN(aq)) were added to 1.60 mL of buffer (0.09 M phosphate buffer, pH 8.0), 5,5′-dithio-bis (2-nitrobenzoic acid) (0.32 mM), and butyrylthiocholine substrate (5 μM) in a quartz cuvette of 1 cm path length, and the mixture was zeroed at 412 nm. The reaction was initiated by the addition of 50 μL of BChE (to 0.68 nM) in 0.1% aqueous gelatin. Assays were conducted at 23 °C. The absorbance (A), reflecting the cumulative hydrolysis of the substrate, was recorded every 5–20 s using an Ultraspec 2100 pro ultra violet (UV)-visible spectrophotometer (Fisher Scientific, Toronto, ON, Canada) equipped with Swift II application software. […]
In Equation (1), A412 is absorbance, [E]tot is the total enzyme concentration, kobs = kE[E]tot, and ΔA412 = A412(final) − A412(t = 0). […]

[2] = tested on: AChE; details: cited from earlier work
[3] = target: hBChE (Homo sapiens, UniProt P06276, N45Q/N483Q/N509Q/N514Q); assay: biochemical; type: binding; details: for n (±SD), binding stoichiometry / ΔG (±SD), Gibbs free energy of binding / ΔH (±SD), binding heat: hBChE, ITC, 25 °C, pH 7.4
hBChE (Homo sapiens, UniProt P06276, N45Q/N483Q/N509Q/N514Q), sequence (P06276 29-557 N45Q/N483Q/N509Q/N514Q): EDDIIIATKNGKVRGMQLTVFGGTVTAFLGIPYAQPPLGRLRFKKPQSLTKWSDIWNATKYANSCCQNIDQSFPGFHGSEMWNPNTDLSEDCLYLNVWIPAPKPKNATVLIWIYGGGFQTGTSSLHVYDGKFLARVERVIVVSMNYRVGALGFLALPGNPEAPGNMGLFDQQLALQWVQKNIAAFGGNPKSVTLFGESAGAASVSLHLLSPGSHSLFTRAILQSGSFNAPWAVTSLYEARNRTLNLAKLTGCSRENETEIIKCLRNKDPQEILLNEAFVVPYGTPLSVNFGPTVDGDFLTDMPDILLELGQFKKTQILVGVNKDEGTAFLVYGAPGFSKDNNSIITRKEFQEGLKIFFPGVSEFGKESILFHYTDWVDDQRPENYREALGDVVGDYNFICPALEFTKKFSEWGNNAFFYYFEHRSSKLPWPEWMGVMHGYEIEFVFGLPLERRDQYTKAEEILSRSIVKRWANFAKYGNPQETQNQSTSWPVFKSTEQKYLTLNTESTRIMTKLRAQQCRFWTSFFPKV

[4] = tested on: hBChE; assay: biochemical; type: binding; details: ITC KD, hAChE vs hBChE
[5] = target: T2, hAChE (Homo sapiens, UniProt P22303); assay: biochemical; type: binding; details: for n (±SD), binding stoichiometry / ΔG (±SD), Gibbs free energy of binding / ΔH (±SD), binding heat: hAChE, ITC, 25 °C, pH 8.0
T2 sequence (P22303 32-574): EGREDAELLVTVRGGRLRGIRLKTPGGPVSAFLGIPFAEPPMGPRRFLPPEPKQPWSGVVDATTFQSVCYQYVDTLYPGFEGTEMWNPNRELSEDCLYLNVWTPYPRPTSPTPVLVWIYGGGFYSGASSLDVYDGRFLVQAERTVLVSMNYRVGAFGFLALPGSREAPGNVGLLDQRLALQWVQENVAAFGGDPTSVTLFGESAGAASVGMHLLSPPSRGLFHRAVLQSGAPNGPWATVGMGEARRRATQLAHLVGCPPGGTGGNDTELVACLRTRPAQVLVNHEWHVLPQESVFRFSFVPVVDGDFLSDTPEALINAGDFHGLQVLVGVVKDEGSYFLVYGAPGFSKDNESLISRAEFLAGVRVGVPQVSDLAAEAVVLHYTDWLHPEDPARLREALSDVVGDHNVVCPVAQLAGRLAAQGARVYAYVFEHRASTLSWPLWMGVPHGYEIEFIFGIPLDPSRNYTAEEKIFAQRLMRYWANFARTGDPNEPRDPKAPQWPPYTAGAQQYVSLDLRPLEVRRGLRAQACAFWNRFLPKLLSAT

[6] = target: T1, BChE; design: method as in PMID 22901043; details: cited from earlier work
[7] = target: T1, BChE; details: in the presence of thioflavin T; cited from earlier work
[8] = tested on: hBChE; details: specificity for BChE; cited from earlier work
[9] = target: T1, BChE; type: biochemical; details: binding site competition ratio of each inhibitor (I1) in the presence of decamethonium (I2), >> 1 denotes competition at the same site
Protocol: This assay is designed to detect any ternary complex formed when two inhibitors are added to AChE or BChE simultaneously [15, 23, 34, 41, 42, 43]. The assay is conducted with a substrate like acetylthiocholine whose second-order hydrolysis at low substrate concentrations is diffusion controlled and thus is inhibited by ligands that bind to either the A-site or the P-site [15] […] Inhibitor competition was then assessed by determining ratios of kE at a fixed concentration ([I1]) of inhibitor 1 and various concentrations ([I2]) of inhibitor 2 (kE + I2) to kE at the same [I1] in the absence of [I2] (kE [I2] = 0) and plotting these ratios against [I2]. These plots were analyzed with Equation (5) (described in the Materials and Methods Section 4.4) to obtain the relative affinity of I1 in its binary complex with enzyme E to I1 in a ternary complex with I2 and E (K12/K1).
Determining rates of substrate hydrolysis in the presence of two inhibitors provides information that indicates whether these inhibitors are interacting with the same or different enzyme binding sites [15]. […]
In this equation, K1, K2, and K12 are the equilibrium dissociation constants for I1 with E, I2 with E, and I1 with the E I2 complex, respectively. Individual inhibition constants (e.g., K2) could be determined from Equation (5) with [I1] fixed at 0. […]

[10] = target: T2, hAChE; details: read-out: AChE KI, recalculated from data obtained in ref 23; cited from earlier work
[11] = tested on: BChE; details: cited from earlier work
[12] = tested on: AChE; details: cited from earlier work; remark: listed apart in the source

`C[N+](C)(C)CCCCCCCCCC[N+](C)(C)C` [Decamethonium, decamethonium bromide] gave a Ki [1] of 4.5 ± 0.2 µM.

In the case of `CC[N+](C)(C)c1cccc(O)c1` [Edrophonium, edrophonium chloride], the “AChE K12/K1” value ([2]; binding site competition ratio in the presence of thioflavin T, recalculated from data obtained in ref 23) is given as 2.9 ± 0.2, the “AChE K12/K1 competition class” value ([2]; in the presence of thioflavin T) is given as “NC (A K12/K1 ratio of ~1 indicates no competition at binding sites (NC))” and the Kd [3] is given as 27.2 ± 2.4 µM. For the same molecule, the “n (±SD), binding stoichiometry” value [3] was 0.9 ± 0.1, the “ΔG (±SD), Gibbs free energy of binding” value [3] was -6.24 ± 0.072 kcal/mol and the “ΔH (±SD), binding heat” value [3] was -3.01 ± 0.406 kcal/mol. For the same molecule, the “n (±SD), binding stoichiometry” value ([3]; listed as edrophonium) was ~ 1, the “difference in KD values between AChE and BChE” value [4] was ~20 fold and the “n (±SD), binding stoichiometry” value [5] was 0.8 ± 0.3. The “ΔG (±SD), Gibbs free energy of binding” value [5] was -8.03 ± 0.19 kcal/mol, the “ΔH (±SD), binding heat” value [5] was -6.31 ± 1.89 kcal/mol and the “n (±SD), binding stoichiometry” value ([5]; listed as edrophonium) was ~ 1. The Ki ([6]; BChE, updated from data in ref 23) was 49 ± 3 µM, the Ki ([6]; read-out: BChE KI, hBChE, recalculated from data obtained in ref 23) was 49 ± 3 µM and the “BChE K12/K1 competition class” value [7] was “PC (intermediate ratios indicate partial competition (PC))”.

With `CCN(CC)C(C)CN1c2ccccc2Sc2ccccc21` (centres unmarked) [Ethopropazine, ethopropazine hydrochloride] the Kd [3] was 1.1 ± 0.1 µM, the “n (±SD), binding stoichiometry” value [3] was 1.0 ± 0.1 and the “ΔG (±SD), Gibbs free energy of binding” value [3] was -8.15 ± 0.048 kcal/mol. The “ΔH (±SD), binding heat” value [3] was -10.4 ± 1.53 kcal/mol, the “n (±SD), binding stoichiometry” value ([3]; listed as ethopropazine) was ~ 1 and the “difference in KD values between AChE and BChE” value [4] was ~20 fold. The “difference in Ki between hAChE and hBChE” value [8] was 9000 fold.

With `Cc1ccc2c(c1)sc(-c1ccc(N(C)C)cc1)[n+]2C` [Thioflavin-T, ThT chloride] the K12/K1 [9] was >200, the Kd [3] was 2.6 ± 0.5 µM and the “n (±SD), binding stoichiometry” value [3] was 2.2 ± 0.1. The “ΔG (±SD), Gibbs free energy of binding” value [3] was -7.65 ± 0.14 kcal/mol, the “ΔH (±SD), binding heat” value [3] was -2.72 ± 0.14 kcal/mol and the “difference in KD values between AChE and BChE” value [4] was “about 7 fold”. For the same molecule, the Ki [10] was 3.9 ± 0.4 µM, the Ki ([1]; BChE 0.68 nM, butyrylthiocholine 5 µM, second-order dependence on inhibitor concentration, read-out: KI (fitted with Equation (4))) was 1.61 ± 0.11 µM and the “KII (fitted with Equation (4))” value ([1]; BChE 0.68 nM, butyrylthiocholine 5 µM, second-order term) was 5.84 ± 0.16 µM^2. For the same molecule, the “KI12/KI1 (maximum for the affinity in the binary complex relative to that in the ternary complex)” value ([1]; BChE, two molecules of inhibitor, maximum reached when KI1 = KI2) was 0.56 ± 0.04, the Kd [5] was 17.7 µM and the “n (±SD), binding stoichiometry” value [5] was 1. The “ΔG (±SD), Gibbs free energy of binding” value [5] was -6.5 kcal/mol, the “ΔH (±SD), binding heat” value [5] was -5.66 kcal/mol and the “n (±SD), binding stoichiometry” value ([5]; listed as ThT) was ~ 1.

For `NCCC1=CC2Cc3nc4cc(Cl)ccc4c(N)c3C(C1)C2` (centres unmarked) [huprine 19], the IC50 [11] is listed as 0.9 µM.

In the case of `Nc1c2c(nc3cc(Cl)ccc13)C[C@H]1C=C(CCO)C[C@@H]2C1` [huprine W], the IC50 [11] is listed as 1.2 µM and the IC50 [12] is listed as 0.0011 µM.
